# According to ChEMBL document CHEMBL3507680, “University of Dundee, Gates Library screen for HepG2 cell viability”:
# Assay: Human HepG2 cell viability assay in 384 well format
# Format: toxicity, cell-based
# Set-up: dose 125 nL, time 70.5 hour; cytotoxicity at 70.5 h: concentration not given beside the values
# Conditions: HepG2 cells, read-out: Inhibition
row,SMILES,cytotoxicity at 70.5 h
1,CCCOc1ccccc1NCC(=O)Nc1ccc(CC)cc1,-6.36%
2,COc1ccc(C(=O)N2C[C@@H](C(=O)O)[C@H](c3cccc(F)c3)C2)c(O)c1,5.73%
3,Cc1ccc(CN2CC3(CCNCC3)CCC2=O)c(F)c1F,-0.751%
4,CN(C)CC1(O)CCN(C(=O)c2cnc(-c3ccccn3)nc2)C1 (stereo not drawn),15.3%
5,O=C(CCCn1cncn1)N1CCC2(CCCNC2=O)C1 (stereo not drawn),0.299%
6,CCCn1ccnc1CN1C[C@@H](NC(C)=O)[C@H](c2ccc(C)cc2)C1,-0.633%
7,Cc1cccnc1CN(C)c1ncnc2[nH]ccc12,-6.05%
8,Cc1cc(S(=O)(=O)NCC2CNCCOC2)c(C)cc1Cl (stereo not drawn),1.99%
9,O=C(CN1CC(c2ccccc2)CC1=O)N1CCN(c2nccs2)CC1 (stereo not drawn),-6.92%
10,c1ccc2sc(N3CCCN(c4ncnc5c4CCNC5)CC3)nc2c1,-7.26%
11,CCc1cc(N2CCC(NC3CCOCC3)CC2)nc(N(C)C)n1,25.7%
12,Cc1ccnc(N2CCC(=O)N(Cc3ccc(F)cc3)C(C(C)C)C2)n1 (stereo not drawn),-9.2%
13,COc1cccc(OCC2CCCN(c3cc(C(N)=O)ccn3)C2)c1 (stereo not drawn),-11.8%
14,CC(C)c1nc(CN(C)C(=O)c2cn3ccsc3n2)cs1,2.2%
15,O=C1N(Cc2ccc(F)c(F)c2)CCCC1(O)CNCc1ccccn1 (stereo not drawn),-4.31%
16,N#Cc1ccccc1C(=O)N1C[C@H]2CC[C@@H]1CN(Cc1ccccc1)C2,-13.1%
17,CC(C)=CCN1CCN(C(=O)COc2ccccc2)[C@H]2CS(=O)(=O)C[C@H]21,1.61%
18,Cn1ncc2c(NCC(=O)N3CCNCC3)nc(C(C)(C)C)nc21,-1.24%
19,Cc1ccc(CN2CCC(n3cc(C(O)c4ccccc4)nn3)CC2)o1 (stereo not drawn),-5.94%
20,Cc1[nH]ccc1C(=O)N1CCC2(CC1)c1nc[nH]c1CCN2CC(C)C,-8.19%
21,O=C(CCn1cc(Cl)cn1)N1CCN(CC2CC2)[C@@H]2CS(=O)(=O)C[C@@H]21,-10.2%
22,COCCN1CC2(CCCN(C(=O)NCCc3cccs3)C2)CCC1=O (stereo not drawn),4.85%

row,SMILES,cytotoxicity at 70.5 h
1,Cc1cc(C(=O)N2CCCC(c3nccn3Cc3cscn3)C2)on1 (stereo not drawn),-6.42%
2,O=C(c1ccccn1)N1C[C@@H]2CC[C@H](C1)N(C(=O)CCC(F)(F)F)C2,-3.18%
3,Cc1cccc(CN2CCC(c3nccn3CC(N)=O)CC2)n1,22.7%
4,Cc1nsc(NC(=O)NC2CCN(C)CC2)n1,-11.7%
5,COc1cnc(N2C[C@@H](CN3CCOCC3)[C@@H](CO)C2)nc1,-5.35%
6,O=C1CCCCCN1Cc1ncnn1Cc1c(F)cccc1Cl,-5.62%
7,CCN1CC(C(=O)N2CC(Oc3ccccc3F)C2)CC1=O (stereo not drawn),-1.35%
8,COc1ccc(F)cc1C(=O)N1CCC2(CCC(=O)N(C(C)C)C2)CC1,-5.66%
9,CCc1nc(N)nc(NCc2cnn3cccnc23)c1C,-0.745%
10,CC(=O)N1CCN(C[C@H]2CC[C@@H](Cc3ccc4c(c3)OCO4)O2)CC1,-1.65%
11,Cc1cccnc1CC(C)N(C)C(=O)c1ccoc1C (stereo not drawn),5.46%
12,Cc1noc(C)c1CN1C(=O)[C@H]2CC[C@@H]1CN(C(=O)c1cscn1)C2,-2.09%
13,CSc1nccc(N2CCC3(CCCN(Cc4cccc(C)c4)C3)C2)n1 (stereo not drawn),-0.65%
14,Cc1cc(=O)[nH]c(-c2cccc(CN3CCCN4CCCC4C3)c2)n1 (stereo not drawn),-5.83%
15,CCC(C(=O)NCc1csc(-c2ncccn2)n1)n1cccn1 (stereo not drawn),13%
16,COc1ncc(C(=O)N2CCC3(CC2)C(=O)Nc2ccccc23)cn1,0.417%
17,CCS(=O)(=O)CCNC(=O)[C@@]12CNC[C@@H]1CN(C1CCCC1)C2,-0.64%
18,O=c1[nH]nc(CCCN2CCOCC2)n1-c1ccc(F)cc1F,24.5%
19,CC[C@@]1(O)CCN(CCCOc2ccc(C(N)=O)cc2)C[C@H]1O,-4.97%
20,COc1ccc(C(=O)N2C[C@@H](C)[C@@](C)(O)C2)cc1N1CCOCC1,2.73%
21,CN1CC2(CCN(CCCOCc3ccccc3)CC2)OC1=O,-9.74%
